Measured values reported in US11814363B2, “Morphic forms of danicopan” (Achillion Pharmaceuticals, Inc., priority 2018, dated 2023).
Values after ≈ are worked out from the molar mass of the structure shown. Read-outs that look alike come from different tables or passages of the source.

Legend:
Type in all cases: physicochemical
[1] = Physical stability of crystal forms on heating, drying or storage, PXRD
[2] = Relative stability of hydrated Compound 1 forms vs water activity, PXRD; conditions: for water activity value (aw) at which the form is the stable hydrate: 25° C.
Experimental: The relative stability of hydrated Compound 1 Form II, Form IV, and Form V were studied at 25° C. and the results are shown in Table 6. […] Form V was determined to be the stable hydrate at aw=0.75, with […] the stable hydrate at aw=0.90. The water activity of the solvent mixture used for the crystallization process must be below 0.55 in order to obtain Form II consistently.

[3] = Visual solubility estimate of amorphous Compound 1 in solvents
Experimental: The solubility of amorphous Compound 1 was estimated in 14 solvents to facilitate the solvent selection for the crystallization study. The solubility of Compound 1 was visually estimated at room temperature (RT; ˜23° C.) by dosing small aliquots of solvent into a fixed amount of solid (˜10 mg) until the dissolution point or a maximum volume (1.7 mL) was reached.

[4] = Dynamic vapor sorption (DVS) analysis
[5] = Visual solubility estimate of amorphous Compound 1 in solvents; conditions: 40 °C, thermodynamic from solid
[6] = 102097-CR6, 2-propanol: 20 vol % Water, water activity 0.9
[7] = CR5, Acetonitrile: 10 vol % Water, water activity 0.75

In the case of `CC(=O)c1nn(CC(=O)N2C[C@H](F)C[C@H]2C(=O)Nc2cccc(Br)n2)c2ccc(-c3cnc(C)nc3)cc12` [Form IV], the “physically stable by PXRD, time” value ([1]; sealed vial) is reported as “at least 10 days”.
With `CC(=O)c1nn(CC(=O)N2C[C@H](F)C[C@H]2C(=O)Nc2cccc(Br)n2)c2ccc(-c3cnc(C)nc3)cc12` [Form V] the “water activity value (aw) at which the form is the stable hydrate” value (“water activity value (aw)” below) [2] was 0.75.
For `CC(=O)c1nn(CC(=O)N2C[C@H](F)C[C@H]2C(=O)Nc2cccc(Br)n2)c2ccc(-c3cnc(C)nc3)cc12` [Form VI], the “PXRD pattern after sitting overnight” value ([1]; overnight on a PXRD holder, ambient) was “closely resembles Form V”.
In the case of `CC(=O)c1nn(CC(=O)N2C[C@H](F)C[C@H]2C(=O)Nc2cccc(Br)n2)c2ccc(-c3cnc(C)nc3)cc12` [Amorphous Compound 1], the solubility ([3]; 1,4-dioxane, 23 °C, organic solvent or mixture, thermodynamic from solid, 1,4-Dioxane, RT (~23° C.), visually estimated, read-out: Solubility at RT) is reported as 98 to 392 mg/mL (≈ 169 to 675 mM), the solubility ([3]; 2-propanol, 23 °C, organic solvent or mixture, thermodynamic from solid, 2-Propanol, RT (~23° C.), visually estimated, read-out: Solubility at RT) is reported as < 5.71 mg/mL and the solubility ([3]; 2-propanol, 40 °C, organic solvent or mixture, thermodynamic from solid, 2-Propanol, 40° C., read-out: Solubility at 40° C.) is reported as > 5.71 mg/mL. The “Solubility at RT” value ([3]; Dimethyl Sulfoxide, RT (~23° C.), visually estimated) was >452 mg/mL, the “Solubility at RT” value ([3]; Heptane, RT (~23° C.), visually estimated) was <5.59 mg/mL and the “Solubility at RT” value ([3]; Water, RT (~23° C.), visually estimated) was <5.59 mg/mL. The solubility ([3]; acetone, 23 °C, organic solvent or mixture, thermodynamic from solid, Acetone, RT (~23° C.), visually estimated, read-out: Solubility at RT) was 121 to 484 mg/mL (≈ 208 to 834 mM), the solubility ([3]; acetonitrile, 23 °C, organic solvent or mixture, thermodynamic from solid, Acetonitrile, RT (~23° C.), visually estimated, read-out: Solubility at RT) was 98 to 392 mg/mL (≈ 169 to 675 mM) and the solubility ([3]; chloroform, 23 °C, organic solvent or mixture, thermodynamic from solid, Chloroform, RT (~23° C.), visually estimated, read-out: Solubility at RT) was 92 to 368 mg/mL (≈ 159 to 634 mM). The solubility ([3]; dichloromethane, 23 °C, organic solvent or mixture, thermodynamic from solid, Dichloromethane, RT (~23° C.), visually estimated, read-out: Solubility at RT) was 99 to 396 mg/mL (≈ 171 to 682 mM), the solubility ([3]; dimethyl sulfoxide, 23 °C, organic solvent or mixture, thermodynamic from solid, Dimethyl Sulfoxide, RT (~23° C.), visually estimated, read-out: Solubility at RT) was > 452 mg/mL and the solubility ([3]; ethyl acetate, 23 °C, organic solvent or mixture, thermodynamic from solid, Ethyl Acetate, RT (~23° C.), visually estimated, read-out: Solubility at RT) was 91 to 364 mg/mL (≈ 157 to 627 mM). For the same compound, the solubility ([3]; heptane, 23 °C, organic solvent or mixture, thermodynamic from solid, Heptane, RT (~23° C.), visually estimated, read-out: Solubility at RT) was < 6 mg/mL, the solubility ([3]; methanol, 23 °C, organic solvent or mixture, thermodynamic from solid, Methanol, RT (~23° C.), visually estimated, read-out: Solubility at RT) was 48 to 96 mg/mL (≈ 82.7 to 165 mM) and the “Solubility at RT” value ([3]; t-Butyl Methyl Ether (MTBE), RT (~23° C.), visually estimated) was <5.71 mg/mL. For the same compound, the solubility ([3]; t-butyl methyl ether (MTBE), 23 °C, organic solvent or mixture, thermodynamic from solid, t-Butyl Methyl Ether (MTBE), RT (~23° C.), visually estimated, read-out: Solubility at RT) was < 6 mg/mL, the solubility ([3]; tetrahydrofuran, 23 °C, organic solvent or mixture, thermodynamic from solid, Tetrahydrofuran, RT (~23° C.), visually estimated, read-out: Solubility at RT) was 92 to 368 mg/mL (≈ 159 to 634 mM) and the solubility ([3]; toluene, 23 °C, organic solvent or mixture, thermodynamic from solid, Toluene, RT (~23° C.), visually estimated, read-out: Solubility at RT) was < 5.35 mg/mL. The solubility ([3]; toluene, 40 °C, organic solvent or mixture, thermodynamic from solid, Toluene, 40° C., read-out: Solubility at 40° C.) was > 5.35 mg/mL, the solubility ([3]; water, 23 °C, water, thermodynamic from solid, Water, RT (~23° C.), visually estimated, read-out: Solubility at RT) was < 6 mg/mL and the “solid form after the DVS experiment by PXRD” value ([4]; after DVS 0-90% RH) was “remained amorphous”. For the same compound, the “water uptake (DVS)” value ([4]; from 0-90% RH) was 4.0%, the solubility ([5]; heptane, organic solvent or mixture) was < 5.59 mg/mL and the solubility ([5]; t-butyl methyl ether, organic solvent or mixture) was < 5.71 mg/mL. The solubility ([5]; water) was < 5.59 mg/mL.
With `CC(=O)c1nn(CC(=O)N2C[C@H](F)C[C@H]2C(=O)Nc2cccc(Br)n2)c2ccc(-c3cnc(C)nc3)cc12` [Form III] the “water activity value (aw)” value [2] was 0.90 and the “crystal form after drying” value ([1]; 70° C. under vacuum for 1 hour) was “did not change the crystal-form”.
For `CC(=O)c1nn(CC(=O)N2C[C@H](F)C[C@H]2C(=O)Nc2cccc(Br)n2)c2ccc(-c3cnc(C)nc3)cc12` [Compound 1, danicopan], the “PXRD Results 4 days/RT” value [2, 6] was “Form III”, the “PXRD Results 8 days/RT” value [2, 6] was “Form IH” and the “PXRD Results 4 days/RT” value ([2]; CR1, 2-propanol, water activity 0) was “Form II”. For the same compound, the “PXRD Results 4 days/RT” value ([2]; CR2, EtOAc, water activity 0) was “Form II”, the “PXRD Results 4 days/RT” value ([2]; CR3, Methanol: 10 vol % Water, water activity 0.33) was “Form II” and the “PXRD Results 4 days/RT” value ([2]; CR4, 2-propanol: 5 vol % Water, water activity 0.55) was “Form II”. The “PXRD Results 4 days/RT” value [2, 7] was “Form V” and the “PXRD Results 8 days/RT” value [2, 7] was “Form V”.
With `CC(=O)c1nn(CC(=O)N2C[C@H](F)C[C@H]2C(=O)Nc2cccc(Br)n2)c2ccc(-c3cnc(C)nc3)cc12` [Form II] the “water content of the hydrate by DVS” value ([4]; DVS isotherm) was 2.7-4.0%, the “critical RH step (DVS)” value ([4]; reversible hydration) was 30 % RH and the “water activity value (aw)” value [2] was ≤ 0.55. For the same compound, the “crystal form by PXRD after heating past the dehydration endotherm” value ([1]; heated past dehydration endotherm, returned to room temperature) was “does not change the crystal-form”.
